The NIST ThermoML archive (doi:10.1016/j.fluid.2016.02.013)
± gives the expanded uncertainty stated by the source.

Conditions: 101.33 kPa, Liquid; for viscosity: Concentric cylinders viscometry; for mass density: Vibrating tube method; for electrical conductivity: impedance analyzer

CCCC[P+](CCCC)(CCCC)CCCC.O=C([O-])[C@@H]1CCCN1 [tetrabutylphosphonium L-prolinate]
viscosity (298.15 K): 1025 ± 43 mPa·s | mass density (298.15 K): 971.1 ± 0.8 kg/m3 | electrical conductivity (298.15 K): 0.00727 S/m | viscosity (303.15 K): 692.8 ± 26 mPa·s | mass density (303.15 K): 968.2 ± 0.8 kg/m3 | electrical conductivity (303.15 K): 0.0105 S/m | viscosity (313.15 K): 343.6 ± 9.6 mPa·s | mass density (313.15 K): 962.38 ± 0.79 kg/m3 | electrical conductivity (313.15 K): 0.0201 ± 0.04 S/m | viscosity (323.15 K): 186.1 ± 3.8 mPa·s | mass density (323.15 K): 956.46 ± 0.79 kg/m3 | electrical conductivity (323.15 K): 0.0354 ± 0.04 S/m | viscosity (333.15 K): 108.7 ± 1.6 mPa·s | mass density (333.15 K): 950.54 ± 0.78 kg/m3 | electrical conductivity (333.15 K): 0.0584 ± 0.04 S/m | viscosity (343.15 K): 67.74 ± 0.74 mPa·s | mass density (343.15 K): 944.63 ± 0.77 kg/m3 | electrical conductivity (343.15 K): 0.0907 ± 0.04 S/m | viscosity (353.15 K): 44.5 ± 0.47 mPa·s | mass density (353.15 K): 938.75 ± 0.77 kg/m3 | electrical conductivity (353.15 K): 0.134 ± 0.04 S/m | viscosity (363.15 K): 30.61 ± 0.33 mPa·s | mass density (363.15 K): 932.9 ± 0.76 kg/m3
